The values that follow are results of earlier work, collected in patent US20210268046A1, “CANNABINOID & PROBIOTIC SUPPOSITORIES & METHODS OF USE” (HoneyHills TX, LLC, priority 2020, published 2021).

The conditions of the data set: for psychotic symptoms: acute paranoid schizophrenia.

Regarding `C=C(C)[C@@H]1CCC(C)=C[C@H]1c1c(O)cc(CCCCC)cc1O` [cannabidiol, Cannabidiol], the psychotic symptoms result is recorded as “significant decrease”. Also, under “compared with Amisuipride”, the side effects entry is recorded as “fewer side effects”. `CCN1CCCC1CNC(=O)c1cc(S(=O)(=O)CC)c(N)cc1OC` (stereo not drawn) [Amisuipride]: the psychotic symptoms entry is given as “significant decrease”.
